From patent publication US11534434B2 (Karuna Therapeutics, Inc., priority 2019, dated 2022) come the findings set out here.

A short description of series [1]: Pharmacokinetics following single oral dose administration in male Sprague-Dawley rats. The format is in vivo. Conditions: rat, oral administration of tartrate salts 25 mg/kg. The protocol:
In-Vivo Assessment of Pharmacokinetics Following Oral Dose Administration in Male Sprague-Dawley Rats
Blood samples were collected from all animals in Groups 1-3 at 0.25, 0.5, 1, 2, 4, 6, 8, 12, and 24 hours post-dose, with each animal, bled at all time points. […] The slopes of the elimination phase of the concentrations vs. time curve used to calculate the T1/2 were determined by log-linear regression.
PK analyses were performed and validated using Phoenix® WinNonlin® version 8.0.

Series [2] has as its target T1, human M3 mAChR (Homo sapiens, UniProt P20309).
T1 construct: expressed in transfected cells
In words: Whole-cell functional agonist activity, FLIPR Ca2+ release, U2OS-based human M3 mAChR stable cell line. The source says: (§1) Whole-cell functional agonist activity in cells expressing recombinant human muscarinic receptor subtypes.
(§2) ThermoFisher's FLIPR™ (Fluorescence Imaging Plate Reader) was used to quantify Ca^2+ release, a functional effect associated with Gaq-coupled M1 and M5 mAChRs. CisBio's phospho-ERK (pERK) Thr202/Tyr204 was used to evaluate Gai/o-coupled M2 and M4 mAChRs responses.
One day before the assay, M1, M3, and M5 cells were thawed out and plated at 10,000 cells/well into black-walled, clear-bottom, Poly-D-lysine coated 384-well microplates and incubated at 37° C. and 5% CO2 in MEME+10% FBS+1× penicillin/streptomycin/glutamine, for the M1 and M3 cell lines and F-12+10% FBS+1× penicillin/streptomycin/glutamine for the M5 cell line. On the day of the test, the media was aspirated and replaced with […] fluo-4 dye loading buffer (1× dye, 1× additive A and 2.5 mM fresh probenecid in HBSS and 20 mM HEPES) and incubated at 37° C. and 5% CO2 for 45 minutes. After the incubation, cells were removed from the incubator, […] of HBSS and 20 mM HEPES was added for a total volume of […], and the cells were allowed to equilibrate at room temperature for 15 minutes in the dark before compounds were applied, by adding 4× compound solution in […] of HBSS, 0.4% DMSO and 20 mM HEPES buffer (made from a 10 mM compound stock solution in 100% DMSO), and responses were recorded for 2 minutes in FLIPR Tetra after compound administration. The M1 and M5 responses were analyzed using the CBIS data analysis suite (ChemInnovation, CA).
(§3) Percentage activity was calculated using the following formula: % Activity=100%×(mean RFU of test sample mean RFU of vehicle control)/(mean MAX RFU control ligand mean RFU of vehicle control) where RFU is relative fluorescence unit. The M2 and the M4 cells were thawed out one day before the assay and plated at 2,000 and 1,000 cells per well, respectively, in […] of DMEM/F12+10% FBS in ProxiPlate 384-well white-walled, white-bottom tissue culture-treated plates and incubated at 37° C. and 5% CO2 overnight. Before the assay, cells were serum-starved at 37° C. in 5% CO2 for 4 hours by replacing culture media with […] of F12 media with 8 mM HEPES. The pERK assay was run according to assay kit instructions with minor volume modifications outlined below.

Series [3] addresses T2, human M4 mAChR (Homo sapiens, UniProt P08173).
T2 construct: expressed in transfected cells
T2 sequence (P08173 1-479): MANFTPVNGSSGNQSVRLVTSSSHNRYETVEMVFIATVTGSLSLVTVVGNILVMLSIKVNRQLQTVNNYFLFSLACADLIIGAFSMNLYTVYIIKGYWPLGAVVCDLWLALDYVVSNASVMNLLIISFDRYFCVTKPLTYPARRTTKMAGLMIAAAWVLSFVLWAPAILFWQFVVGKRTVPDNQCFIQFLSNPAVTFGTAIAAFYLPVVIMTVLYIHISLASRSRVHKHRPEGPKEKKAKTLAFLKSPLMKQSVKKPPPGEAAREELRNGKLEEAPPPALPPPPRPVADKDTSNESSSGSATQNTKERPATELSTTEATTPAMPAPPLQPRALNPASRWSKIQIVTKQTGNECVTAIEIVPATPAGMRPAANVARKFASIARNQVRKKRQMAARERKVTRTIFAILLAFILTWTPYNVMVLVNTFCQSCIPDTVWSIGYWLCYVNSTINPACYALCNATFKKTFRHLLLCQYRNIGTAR
The series can be described thus: Whole-cell functional agonist activity, phospho-ERK (pERK), CHOK1-based human M4 mAChR stable cell line. Conditions: top of curve, % of min (DMSO) and max (10 mM Acetylcholine) responses. The protocol:
as §1, §2, §3
(§4) Compound addition was carried out by adding 3× compound solution in […] of media with 0.3% DMSO (made from a 10 mM compound stock solution in 100% DMSO) for 5 minutes before the reaction was terminated by adding […] lysis and blocking solution. Cells were left in the lysis solution for 30 minutes before […] of antibody (Eu and d2) solution was added for an additional 2-hour incubation while protected from light. The plates were then read on laser Pherastar using the TR-FRET protocol.

Series [4] deals with T3, human M2 mAChR (Homo sapiens, UniProt P08172).
T3 construct: expressed in transfected cells
T3 sequence (P08172 1-466): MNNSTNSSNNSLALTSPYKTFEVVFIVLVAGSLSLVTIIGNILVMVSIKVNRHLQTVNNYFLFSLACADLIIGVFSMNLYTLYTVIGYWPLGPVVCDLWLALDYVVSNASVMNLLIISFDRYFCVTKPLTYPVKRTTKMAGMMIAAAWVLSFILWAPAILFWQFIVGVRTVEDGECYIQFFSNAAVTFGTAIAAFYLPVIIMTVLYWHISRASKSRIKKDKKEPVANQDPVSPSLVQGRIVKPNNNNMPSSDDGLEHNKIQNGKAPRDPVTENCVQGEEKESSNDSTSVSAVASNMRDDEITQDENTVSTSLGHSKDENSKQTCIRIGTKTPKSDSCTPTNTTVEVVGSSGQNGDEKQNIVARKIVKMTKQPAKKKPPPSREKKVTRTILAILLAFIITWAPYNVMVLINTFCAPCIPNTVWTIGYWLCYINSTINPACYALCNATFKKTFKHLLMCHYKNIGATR
In words: Whole-cell functional agonist activity, phospho-ERK (pERK), CHOK1-based human M2 mAChR stable cell line. Conditions: top of curve, % of min (DMSO) and max (10 mM Acetylcholine) responses. The protocol: as §1, §2, §3, §4

Series [5] deals with T4, human M5 mAChR (Homo sapiens, UniProt P08912).
T4 construct: expressed in transfected cells
T4 sequence (P08912 1-532): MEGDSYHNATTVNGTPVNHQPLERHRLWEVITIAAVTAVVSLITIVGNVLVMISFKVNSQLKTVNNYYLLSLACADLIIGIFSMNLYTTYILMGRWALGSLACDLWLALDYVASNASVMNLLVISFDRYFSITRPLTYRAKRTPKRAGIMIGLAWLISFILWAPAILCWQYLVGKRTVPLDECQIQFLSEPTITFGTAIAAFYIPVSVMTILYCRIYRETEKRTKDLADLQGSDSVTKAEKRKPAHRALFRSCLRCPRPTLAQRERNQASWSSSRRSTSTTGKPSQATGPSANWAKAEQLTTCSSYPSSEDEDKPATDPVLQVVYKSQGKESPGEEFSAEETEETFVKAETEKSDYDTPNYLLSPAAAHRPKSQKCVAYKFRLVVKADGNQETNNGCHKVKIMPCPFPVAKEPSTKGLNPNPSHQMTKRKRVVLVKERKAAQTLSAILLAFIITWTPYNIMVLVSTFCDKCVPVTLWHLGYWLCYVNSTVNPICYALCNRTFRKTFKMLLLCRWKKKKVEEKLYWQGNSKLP
The series can be described thus: Whole-cell functional agonist activity, FLIPR Ca2+ release, CHOK1-based human M5 mAChR stable cell line. Conditions: top of curve, % activity vs MAX control ligand, FLIPR Ca2+.
Source text: as §1, §2
One day before the assay, M1, M3, and M5 cells were thawed out and plated at 10,000 cells/well into black-walled, clear-bottom, Poly-D-lysine coated 384-well microplates and incubated at 37° C. and 5% CO2 in MEME+10% FBS+1× penicillin/streptomycin/glutamine, for the M1 and M3 cell lines and F-12+10% FBS+1× penicillin/streptomycin/glutamine for the M5 cell line. […] The M1 and M5 responses were analyzed using the CBIS data analysis suite (ChemInnovation, CA).
as §3

T1 sequence (P20309 whole entry): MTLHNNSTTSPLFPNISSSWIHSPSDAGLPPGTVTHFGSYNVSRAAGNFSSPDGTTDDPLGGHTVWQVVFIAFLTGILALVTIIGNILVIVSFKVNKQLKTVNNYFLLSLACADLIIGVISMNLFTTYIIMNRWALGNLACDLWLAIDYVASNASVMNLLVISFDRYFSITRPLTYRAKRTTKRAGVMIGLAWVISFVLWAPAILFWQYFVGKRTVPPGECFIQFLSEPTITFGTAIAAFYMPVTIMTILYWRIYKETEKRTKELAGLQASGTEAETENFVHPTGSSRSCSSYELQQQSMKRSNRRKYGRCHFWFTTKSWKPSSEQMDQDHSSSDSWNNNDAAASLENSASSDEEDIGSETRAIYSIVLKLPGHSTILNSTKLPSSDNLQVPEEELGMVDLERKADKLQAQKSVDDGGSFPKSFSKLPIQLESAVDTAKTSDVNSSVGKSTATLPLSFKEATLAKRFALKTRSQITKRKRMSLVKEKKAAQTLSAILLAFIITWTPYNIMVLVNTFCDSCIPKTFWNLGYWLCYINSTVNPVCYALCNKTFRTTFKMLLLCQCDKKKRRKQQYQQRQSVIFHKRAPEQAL

The EC50 is the concentration at which the effect is half-maximal. Read a low EC50 as greater potency. As a reminder, the Emax is the greatest response seen or fitted, relative to the assay's reference. On to `CCCCCCOc1nsnc1C1=CCCN(C)C1` [Xanomeline, 3-(hexyloxy)-4-(1-methyl-1,2,5,6-tetrahydropyridin-3-yl)-1,2,5-thiadiazole, reference compound], for which, in series [1], the “plasma levels compared between treatments” value is “about mid-way between the levels of xanomeline-d16 and xanomeline-d13”. Further, the EC50 in series [2] (agonist, FLIPR Ca2+ release, U2OS human M3 cells) is above 10 µM. The maximal response (Emax) in series [2] (top of curve, % activity vs MAX control ligand, FLIPR Ca2+) came out at 17%; in series [5], 92%. In addition, the “M4 Top (%)” value in series [3] is 100%. The “M2 Top (%)” value in series [4] is on record as 1%.
